Measured values taken from patent US20140357512A1, “HISTONE DEACETYLASE (HDAC) BIOMARKERS IN MULTIPLE MYELOMA” (priority 2013, published 2014).

Test system: human myeloma cell line MM.1S
Experiment: SILAC acetylated-lysine peptide profiling, HDAC inhibitor vs DMSO (light/heavy ratio)
Assay type: cell-based
Source text: An embodiment of the invention comprises utilizing the SILAC method in order to quantitate changes in protein expression between two or more populations of cells. The SILAC method is a technique based on mass spectrometry that detects differences in protein abundance among samples using non-radioactive isotopic labeling. The SILAC method is known in the art, and described in detail in Ong et al., “Stable Isotope Labeling by Amino Acids in Cell Culture, SILAC, as a Simple and Accurate Approach to Expression Proteomics”, Molecular & Cellular Proteomics, vol. 1, pp. 376-386 (2002), which is incorporated herein by reference in its entirety.
Briefly, the SILAC method involves growing two populations of cells in cell culture. The first population of cells is grown in growth media containing normal amino acids (“normal media”). The second population of cells is grown in media lacking a standard essential amino acid (such as lysine), but is then supplemented with a non-radioactive, isotopically labeled form of that essential amino acid (such as lysine labeled with ^13C atoms, rather than normal ^12C atoms), which is called “heavy media”. When the two populations of cells are each growing in the medium, they incorporate the amino acids into all of their proteins. The growth of cells maintained in the heavy media is no different from that in normal media. All peptides containing the heavy amino acids are heavier than their normal counterparts. The cells from each of the two populations of cells are lysed. The lysates from each of the two cell populations are then combined. The combined cell lysates are then analyzed by mass spectrometry. Pairs of chemically identical peptides of different stable isotope composition can be differentiated in a mass spectrometer due to their difference in mass. The ratio of peak intensities in the mass spectrum for such peptide pairs reflects the abundance ratio for the two proteins.
This example describes SILAC studies that were performed to compare the effects of three different HDAC inhibitors (Compound A, Compound B, and tubastatin A) to a control on a human multiple myeloma cell line. The HDAC inhibitors were also compared amongst themselves to determine differences in their effects.
A human myeloma cell line MM.1S was grown using either ^12C (light) or ^13C (heavy) lysine containing culture medium. The “heavy” cells were treated with DMSO as the control, and the “light” cells were treated with a single HDAC inhibitor at 37° C. for 6 hours. The heavy and light cells were lysed, and the lysates were mixed in 1:1 ratio and digested with the protease trypsin. The acetylated lysine containing peptides (due to the action of the HDAC inhibitor) in the digested peptide pool were captured by a non-specific anti-acetylated lysine antibody cocktail (the antibodies identify both light and heavy acetylated peptides), and subjected to mass spectrometry analysis in order to identify thousands of individual peptides.
Thousands of peptides were identified in pairs (^12C and ^13C) due to their known mass differences. The amino acid sequence and quantitative ratio (Light/Heavy) of a given peptide in two differentially treated cell lysates were then determined and annotated with their possible protein (gene) sources.
As stated above, three HDAC inhibitors (Compound A, Compound B, and Tubastatin A) were used. Thus, the SILAC method was performed three times, with a different HDAC inhibitor compared to a control each time. Accordingly, there are three pairs of quantitative data in the table below, i.e., Compound A:DMSO, Compound B:DMSO, and Tubastatin A:DMSO. A cut-off of 1.30 fold of change (increase or decrease) was then used to determine “changed” or “+” in the table, and any peptides with a fold of change less than 1.3 fold were determined to be “unchanged” or “0” in the table. Those peptides that were not identified were marked as “NA” in the table. […]

CN1CCc2c(c3ccccc3n2Cc2ccc(C(=O)NO)cc2)C1 [Tub A]
light to heavy ratio (L/H ratio), log 2 scale, acetylated peptide VGDK(ac)VLLPEYGGTK (SEQ ID NO: 773) (10 kDa heat shock protein mitochondrial [70], gene HSPE1, drug:DMSO): 0.00
light to heavy ratio (L/H ratio) of acetylated peptide IQEVLK(ac)HAR (SEQ ID NO: 264) (39S ribosomal protein L20 mitochondrial [26], MRPL20, drug:DMSO): 0.38 log 2
light to heavy ratio (L/H ratio) of acetylated peptide FK(ac)LITEDVQGK (SEQ ID NO: 287) (40S ribosomal protein S3a [85], SNORD73A, RPS3A, drug:DMSO): −0.66 log 2
light to heavy ratio (L/H ratio) of acetylated peptide KDVHMPK(ac)HPELADK (SEQ ID NO: 353) (40S ribosomal protein S10 [31], RPS10, drug:DMSO): 0.00 log 2
light to heavy ratio (L/H ratio) of acetylated peptide NK(ac)IAGYVTHLMK (SEQ ID NO: 559) (40S ribosomal protein S17 [49], gene RPS17, RPS17L, inhibitor:DMSO): 0.00 log 2
light to heavy ratio (L/H ratio) of acetylated peptide GIVLEK(ac)VGVEAK (SEQ ID NO: 320) (40S ribosomal protein S23 [54], RPS23, drug:DMSO): −0.55 log 2
light to heavy ratio (L/H ratio), log 2 scale, acetylated peptide ALEK(ac)IDLK (SEQ ID NO: 813) (60S ribosomal protein L3 [362], gene SNORD43, RPL3, drug:DMSO): 0.00
light to heavy ratio (L/H ratio) of acetylated peptide IPK(ac)HLTDAYFK (SEQ ID NO: 259) (60S ribosomal protein L6 [211], RPL6, drug:DMSO): −0.63 log 2
light to heavy ratio (L/H ratio) of acetylated peptide GPLDK(ac)WR (SEQ ID NO: 622) (60S ribosomal protein L10-like [208], gene RPL10L, inhibitor:DMSO): 0.00 log 2
light to heavy ratio (L/H ratio), log 2 scale, acetylated peptide YMVK(ac)SCGK (SEQ ID NO: 811) (60S ribosomal protein L10 [78], gene SNORA70, RPL10, drug:DMSO): 0.00
light to heavy ratio (L/H ratio) of acetylated peptide VITEEEK(ac)NFK (SEQ ID NO: 522) (60S ribosomal protein L13 [174], gene RPL13, inhibitor:DMSO): 0.00 log 2
light to heavy ratio (L/H ratio) of acetylated peptide LAAIVAK(ac)QVLLGR (SEQ ID NO: 505) (60S ribosomal protein L13a [25], gene SNORD32A, RPL13A, SNORD33, SNORD34, inhibitor:DMSO): 0.00 log 2
light to heavy ratio (L/H ratio) of acetylated peptide K(ac)FAYLGR (SEQ ID NO: 614) (60S ribosomal protein L13a [134], gene SNORD32A, RPL13A, SNORD33, SNORD34, inhibitor:DMSO): 0.00 log 2
light to heavy ratio (L/H ratio), log 2 scale, acetylated peptide LAHEVGWK(ac)[…] (SEQ ID NO: 812) (60S ribosomal protein L13a [148], gene SNORD32A, RPL13A, SNORD33, SNORD34, drug:DMSO): 0.00
light to heavy ratio (L/H ratio) of acetylated peptide RNPDTQWITK(ac)PVHK (SEQ ID NO: 581) (60S ribosomal protein L15 [153], gene RPL15, inhibitor:DMSO): 0.00 log 2
light to heavy ratio (L/H ratio), log 2 scale, acetylated peptide YSVDIPLDK(ac)TVVNK (SEQ ID NO: 807) (60S ribosomal protein L27 [93], gene RPL27, drug:DMSO): 0.00
light to heavy ratio (L/H ratio), log 2 scale, acetylated peptide TVVNK(ac)DVFR (SEQ ID NO: 766) (60S ribosomal protein L27 [98], gene RPL27, drug:DMSO): 0.00
light to heavy ratio (L/H ratio) of acetylated peptide NCSSFLIK(ac)R (SEQ ID NO: 558) (60S ribosomal protein L28 [19], gene RPL28, inhibitor:DMSO): 0.00 log 2
light to heavy ratio (L/H ratio) of acetylated peptide LWSK(ac)AIFAGYK (SEQ ID NO: 538) (60S ribosomal protein L35a [8], gene RPL35A, inhibitor:DMSO): 0.00 log 2
light to heavy ratio (L/H ratio) of acetylated peptide AIFAGYK(ac)R (SEQ ID NO: 300) (60S ribosomal protein L35a [15], RPL35A, drug:DMSO): 0.44 log 2
light to heavy ratio (L/H ratio) of acetylated peptide VMEHFIK(ac)LYK (SEQ ID NO: 276) (78 kDa glucose-regulated protein [268], HSPA5, drug:DMSO): −0.66 log 2
light to heavy ratio (L/H ratio) of acetylated peptide AK(ac)FEELNMDLFR (SEQ ID NO: 266) (78 kDa glucose-regulated protein [326], HSPA5, drug:DMSO): −0.52 log 2
L/H ratio of acetylated peptide ((ac)AVPPTYADLGK(ac)SAR (SEQ ID NO: 464), Voltage-dependent anion-selective channel protein 1 [12], VDAC1): 0.00 log 2
light to heavy ratio (L/H ratio) of acetylated peptide, log 2 scale ((ac)SIGVPIK(ac)VLHEAEGHIVTCETNTGEVYR (SEQ ID NO: 224), Small nuclear ribonucleoprotein Sm D3 [8], SNRPD3): 0.40
L/H ratio of acetylated peptide ((ac)SSNECFK(ac)CGR (SEQ ID NO: 379), Isoform 1 of Cellular nucleic acid-binding protein [8], CNBP): 0.00 log 2
light to heavy ratio (L/H ratio) of acetylated peptide, log 2 scale ((ac)SVFGK(ac)LFGAGGGK (SEQ ID NO: 143), Charged multivesicular body protein 4b [6], CHMP4B): −0.39
L/H ratio of acetylated peptide IHNFGLIQEK(ac)LAR (SEQ ID NO: 19) (ACADVL [428], log 2 scale, drug vs DMSO): −0.60
L/H ratio of acetylated peptide NLQK(ac)EVIHR (SEQ ID NO: 125) (ACOX1 [504], log 2 scale, drug vs DMSO): 0.54
L/H ratio of acetylated peptide LDHLAEK(ac)FR (SEQ ID NO: 20) (ACTN1 [398], log 2 scale, drug vs DMSO): −0.51
L/H ratio of acetylated peptide LVDQSGPPHEPK(ac)FVYQAK (SEQ ID NO: 126) (ADAR [757], log 2 scale, drug vs DMSO): −0.41
light to heavy ratio (L/H ratio) of acetylated peptide, log 2 scale (ADINTK(ac)WAATR (SEQ ID NO: 202), Ribosomal protein L14 variant [85], RPL14): −0.50
light to heavy ratio (L/H ratio) of acetylated peptide, log 2 scale (ADK(ac)DYHFK (SEQ ID NO: 191), Isoform 2 of Nucleophosmin [27], NPM1): −0.60
light to heavy ratio (L/H ratio) of acetylated peptide IFGSNK(ac)WTTEQQQR (SEQ ID NO: 306) (ADP-ribosylation factor-like protein 6-interacting protein 1 [96], ARL6IP1, drug:DMSO): 0.45 log 2
light to heavy ratio (L/H ratio) of acetylated peptide TTLLYK(ac)LK (SEQ ID NO: 624) (ADP-ribosylation factor-like protein 11 [31], gene ARL11, inhibitor:DMSO): 0.00 log 2
light to heavy ratio (L/H ratio) of acetylated peptide IFK(ac)SDGLR (SEQ ID NO: 280) (ADP/ATP translocase 1 [166], SLC25A4, drug:DMSO): 0.48 log 2
light to heavy ratio (L/H ratio) of acetylated peptide ITK(ac)SDGIR (SEQ ID NO: 587) (ADP/ATP translocase 3 [166], gene SLC25A6, inhibitor:DMSO): 0.00 log 2
L/H ratio of acetylated peptide HLSDSINQK(ac)HFEQAIER (AFG3L2 [543], log 2 scale, drug vs DMSO): −0.39
light to heavy ratio (L/H ratio) of acetylated peptide, log 2 scale (AFYK(ac)SFSK (SEQ ID NO: 170), Endoplasmin [360], HSP90B1): −1.00
light to heavy ratio (L/H ratio) of acetylated peptide, log 2 scale (AGVNTVTTLVENK(ac)K (SEQ ID NO: 206), 60S ribosomal protein L7a [150], RPL7A, SNORD24): −0.42
light to heavy ratio (L/H ratio) of acetylated peptide, log 2 scale (AGYNVK(ac)QLFR (SEQ ID NO: 199), Isoform 1 of Ras-related protein Rab-6A [164], RAB6A): 0.45
light to heavy ratio (L/H ratio) of acetylated peptide, log 2 scale (AHPVFYQGTYSQALNDAK(ac)R (SEQ ID NO: 153), FAS-associated factor 2 [167], FAF2): −0.48
L/H ratio of acetylated peptide LK(ac)DISTLEPLKK (SEQ ID NO: 21) (ANP32B [101], log 2 scale, drug vs DMSO): −0.56
L/H ratio of acetylated peptide QRQEVCQSYK(ac)SLYGK (SEQ ID NO: 22) (ANXA6 [63], log 2 scale, drug vs DMSO): 0.68
L/H ratio of acetylated peptide LGTDESK(ac)FNAVLCSR (SEQ ID NO: 7) (ANXA11 [478], log 2 scale, drug vs DMSO): −0.44
